Patent US20250214951A1, “3-PHENYLISOXAZOLE DERIVATIVE, AND PHARMACEUTICAL COMPOSITION FOR PREVENTING OR TREATING EYE DISEASE, CONTAINING SAME AS ACTIVE INGREDIENT” (VASTHERA CO., LTD., priority 2022, published 2025)

Columns and labels:
Format in all cases: cell-based, human
NF-κB (p65) = test: Inhibition of blue light-induced NF-κB activation (p65 Western immunoblotting); details: A2E and blue light; 10 and 25 μM; FIG. 4
Excerpt: When cells are stimulated by external pathogenic molecules (PAMPs), NF-κB dimers (p50-p65 dimers) are separated from IκB and activated. The separated NF-κB dimers pass through the nuclear membrane and enter the nucleus, where they bind to DNA and activate gene transcription, indicating the activation of NF-κB. Therefore, the inhibitory effect of the compound of the present invention on NF-κB activation can be evaluated by measuring changes in the cytoplasmic or nuclear levels of p65. The experiment was conducted as follows.
ARPE-19 cells were seeded in 6-well plates at a concentration of 2×10^4 cells/well and cultured for 24 hours. In order to induce A2E accumulation in the ARPE-19 cell line, cells were treated with A2E three times at a concentration of 25 μM at 48-hour intervals. 24 hours after the final A2E treatment, cells were treated with compound 17 of the present invention twice at concentrations of 10 and 25 μM at 24-hour intervals, respectively. […] The level of p65 was measured by Western immunoblotting using anti-p65 antibody (Cell Signaling Technology, MA, USA). The cytoplasmic and nuclear fractions were measured by Western immunoblotting in the same manner as above using antibodies against α-tubulin (Cell Signaling Technology) and histone H3 (Abcam, Cambridge, UK) as internal controls, respectively.

p62 protein = test: Restoration of autophagy inhibited by A2E and blue light (p62 Western); details: ARPE-19, A2E accumulation and blue light; FIG. 10
Excerpt: Therefore, it was confirmed whether the compound of the present invention can restore autophagy inhibited by A2E and blue light.
During the autophagosome formation process, p62 specifically binds to a substance to be degraded and simultaneously binds to LC3 protein to form an autophagosome. When autophagy is inhibited, aggregates composed of p62 and ubiquitinated proteins are formed and p62 accumulates in the cell. Therefore, by measuring the change in the level of intracellular p62, the improvement effect of the compound of the present invention on autophagy inhibited by A2E and blue light can be evaluated, and the experiment was conducted as follows.
Specifically, ARPE-19 cells were seeded into 6-well plates at a concentration of 2×10^4 cells/well and cultured for 24 hours. To induce A2E accumulation in the ARPE-19 cell line, the cells were treated with A2E three times at a concentration of 25 μM at 48-hour intervals. 24 hours after the final A2E treatment, the cells were treated with example 17 compound twice at 24-hour intervals each. […] The amount of intracellular p62 was measured by Western immunoblotting using an anti-p62 antibody (Santa Cruz, TX, USA). The amount of intracellular β-actin was measured in the same manner using anti-β-actin antibody (Santa Cruz) and used as a control.

[1] = system: IL-1β, IL-6 and CXCL8 mRNA; test: Inhibition of blue light-induced inflammatory gene expression (real-time PCR); details: A2E and blue light; P<0.05; FIG. 5
Method: ARPE-19 cell lines were seeded in 6-well plates at a concentration of 2×10^4 cells/well and cultured for 24 hours. The process of accumulating A2E in ARPE-19 cell lines, irradiating with blue light, and treating with example 17 compound of the present invention was performed in the same manner as in Experimental Example 5. After 24 hours of irradiating with blue light, total RNA was isolated from ARPE-19 cells using Trizol reagent (Invitrogen), and total RNA was quantified using Nanodrop (Nanodrop, Thermo Scientific). Thereafter, cDNA was synthesized using […] of total RNA, and the cDNA was amplified using the primers described in Table 5 below as a template and a real-time genetic cycler LC480 (Roche) (PCR conditions: denaturation −95° C., 10 seconds; primer binding −60° C., 10 seconds; and extension −72° C., 10 seconds).
At this time, the PCR results for 18S were used as a control to correct the relative amount of genes measured in the ARPE-19 cell line, and the experimental results are shown in FIG. 5.

For C=CCOCc1cc(-c2cc(CC=C)ccc2OC)no1 [Example 17, 3-(5-allyl-2-methoxyphenyl)-5-((allyloxy)methyl)isoxazole], the “activation of NF-κB (movement of p65 into the nucleus)” value (NF-κB (p65)) was “activation of NF-κB was inhibited”, the p62 protein concentration (p62 protein) was “decreased in a concentration-dependent manner” and the “expression of mRNA of inflammation-related genes (IL-1β, IL-6, and CXCL8)” value [1] was “statistically significant reduction”.
